Reference: US20050261290A1, “Novel compounds of proline and morpholine derivatives” (priority 2004, published 2005)
Read-outs that look alike come from different tables or passages of the source.

Target: human 11b-hsd-1 (Homo sapiens, UniProt P28845)
Assay: Inhibition constant Ki of human 11b-hsd-1 (3H-cortisone to 3H-cortisol conversion, HPLC)
Format: biochemical
Conditions: for Ki: apparent Ki, read-out: Ki app

Sequence of human 11b-hsd-1 (P28845 whole entry): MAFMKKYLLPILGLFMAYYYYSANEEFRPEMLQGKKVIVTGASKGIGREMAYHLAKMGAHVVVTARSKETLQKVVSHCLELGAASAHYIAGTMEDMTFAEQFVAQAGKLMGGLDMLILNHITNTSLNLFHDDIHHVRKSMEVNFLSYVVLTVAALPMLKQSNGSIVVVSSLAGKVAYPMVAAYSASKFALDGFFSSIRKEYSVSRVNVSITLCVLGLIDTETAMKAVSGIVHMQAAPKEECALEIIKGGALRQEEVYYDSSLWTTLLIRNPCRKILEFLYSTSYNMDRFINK

Compound	inhibition at 0.1 µM (0.1 μM compound)	Ki	Ki (human 11b-hsd-1)	inhibition at 0.1 µM (compound at 0.1 μM)	% inh @ 0.1 μM (compound at 0.1 μM, 0.1 µM)
CCCN1CCC[C@@H]1C(=O)NC12CC3CC(CC(C3)C1)C2 [Example 21]	–	–	1.2 nM	100%	–
O=C(NC1CCCCC1)[C@H]1CCCN1CC1CC1 [Example 102]	–	–	7 nM	91%	–
O=C(NC1C2CC3CC(C2)CC1C3)[C@H]1COCCN1Cc1ccccc1 (stereo partly shown) [Example 2]	–	–	2.4 nM	100%	–
O=C(NC1C2CC3CC(C2)CC1C3)[C@H]1CCCN1C[C@H]1CCCN1 (stereo partly shown) [Example 138]	–	–	–	100%	–
CC(=O)NCCN1CCC[C@@H]1C(=O)NC1C2CC3CC(C2)CC1C3 (stereo partly shown) [Example 129, 1-(2-Acetylamino-ethyl)pyrrolidine-2-carboxylic acid adamantan-2-ylamide]	–	–	–	72%	–
CCN1CCC[C@H](C(=O)NC2C3CC4CC(C3)CC2C4)C1 (stereo partly shown) [Example 124]	–	–	–	100%	–
O=C(NC1C2CC3CC(C2)CC1C3)[C@H]1CCCNC1 (stereo partly shown) [Example 121, Piperidine-3-carboxylic acid adamantan-2-ylamide]	–	–	–	17%	–
O=C(NCc1ccccc1)[C@@H]1CCCN1CC1CCCCC1 [Example 5, N-benzyl-1-(cyclohexylmethyl)-L-prolinamide]	–	–	–	29%	–
N#Cc1ccc(CN2CCOC[C@@H]2C(=O)NC2C3CC4CC(C3)CC2C4)cc1 (stereo partly shown) [Example 62]	–	–	1.1 nM	100%	–
CC(C)(C)OC(=O)N1CCC[C@H]1CN1CCC[C@@H]1C(=O)NC1C2CC3CC(C2)CC1C3 (stereo partly shown) [Example 112]	–	–	–	81%	–
C[C@@H](CN1CCC[C@@H]1C(=O)NC1C2CC3CC(C2)CC1C3)NC(=O)OC(C)(C)C (stereo partly shown) [Example 154]	–	–	–	96%	–
CN1CCC[C@@H]1C(=O)NC12CC3CC(CC(C3)C1)C2 [Example 20]	–	–	23.3 nM	72%	–
CC(C)OCCN1CCC[C@@H]1C(=O)NC1CCCCC1 [Example 96]	–	–	39 nM	84%	–
N#Cc1ccc(CN2CCCC(C(=O)NC3C4CC5CC(C4)CC3C5)C2)cc1 (stereo not shown) [Example 163]	–	–	–	100%	–
CCN1CCC(CN2CCOC[C@@H]2C(=O)NC2C3CC4CC(C3)CC2C4)CC1 (stereo partly shown) [Example 75]	–	–	–	91%	–
O=C(NC1CCCCC1)[C@H]1CCCN1CC1CCCC1 [Example 50]	–	–	1.3 nM	100%	–
O=C(NC12CC3CC(CC(C3)C1)C2)[C@H]1CCCN1CC1CCCCC1 [Example 9, N-1-adamantyl-1-(cyclohexylmethyl)-D-prolinamide]	–	–	1.7 nM	100%	–

Compound	inhibition at 0.1 µM (0.1 μM compound)	Ki	Ki (human 11b-hsd-1)	inhibition at 0.1 µM (compound at 0.1 μM)	% inh @ 0.1 μM (compound at 0.1 μM, 0.1 µM)
CCOCCN1CCC[C@@H]1C(=O)NC1CCCCC1 [Example 95]	–	–	39 nM	78%	–
O=C(NC1C2CC3CC(C2)CC1C3)[C@H]1CCCN1Cc1ccccn1 (stereo partly shown) [Example 41]	–	–	< 1 nM	100%	–
CC(C)CN1CCC[C@@H]1C(=O)NC1CCCCC1 [Example 86]	–	–	< 1 nM	100%	–
CN(Cc1ccc(F)cc1)C(=O)[C@H]1COCCN1Cc1ccc(C#N)cc1 [Example 36]	–	–	21.4 nM	90%	–
CCN1CCC[C@@H]1C(=O)NC1CCCCC1 [Example 84]	–	–	–	62%	–
CCCN1CCC[C@@H]1C(=O)NC1CCCCC1 [Example 85]	–	–	9 nM	94%	–
N#Cc1ccc(CN2CCC[C@@H]2C(=O)NC2CCCCC2)cc1 [Example 52]	–	–	4.6 nM	100%	–
CNCCN1CCC[C@@H]1C(=O)NC1C2CC3CC(C2)CC1C3 (stereo partly shown) [Example 111]	–	–	–	96%	–
O=C(NC12CC3CC(CC(C3)C1)C2)[C@H]1CCCN1Cc1ccc(Cl)cc1 [Example 10]	–	–	0.85 nM	100%	–
O=C(NC1C2CC3CC(C2)CC1C3)[C@H]1COCCN1CCO (stereo partly shown) [Example 66]	–	–	10 nM	89%	–
O=C(NC1C2CC3CC(C2)CC1C3)[C@H]1C[C@@H](O)CN1Cc1ccc(F)cc1 (stereo partly shown) [Example 27]	–	–	1.1 nM	100%	–
CCCN1CCCC1(C)C(=O)NC1CCCCC1 (stereo not shown) [Example 60]	–	–	25 nM	79%	–
CCCN1CCC[C@@H]1C(=O)NC1CCCCC1C (stereo partly shown) [Example 55]	–	–	3.7 nM	100%	–
O=C(NC1CCCCC1)[C@H]1CCCN1CC1CCCO1 (stereo partly shown) [Example 98]	–	–	–	–	41%
CN(C)CCCN1CCC[C@@H]1C(=O)NC1C2CC3CC(C2)CC1C3 (stereo partly shown) [Example 108]	–	–	9 nM	100%	–
CS(=O)(=O)NCCN1CCC[C@@H]1C(=O)NC1C2CC3CC(C2)CC1C3 (stereo partly shown) [Example 130, 1-(2-Methanesulfonylamino-ethyl)pyrrolidine-2-carboxylic acid adamantan-2-ylamide]	–	–	–	56%	–
CC1(C(=O)NC2CCCCC2)CCCN1Cc1ccc(C#N)cc1 (stereo not shown) [Example 59]	–	–	22 nM	71%	–

Results, then the molecule that gave them:

inhibition at 0.1 µM (0.1 μM compound)	Ki	Ki (human 11b-hsd-1)	inhibition at 0.1 µM (compound at 0.1 μM)	% inh @ 0.1 μM (compound at 0.1 μM, 0.1 µM)	Compound
100%	2.1 nM	–	–	–	CCc1ccc(O[C@@H]2CN[C@H](C(=O)NC3C4CC5CC(C4)CC3C5)C2)c(OC)c1 (stereo partly shown) [Example 354]
100%	1 nM	–	–	–	CC(C)CN1CCC[C@@H]1C(=O)N[C@@H]1CCc2ccccc21 [Example 291]
100%	2.23 nM	–	–	–	O=C(N[C@@H]1CCCc2ccccc21)[C@H]1CCCN1CC1CCCC1 [Example 299]
88%	14 nM	–	–	–	O=C(NCc1ccccc1Cl)[C@H]1CCCN1Cc1ccccc1 [Example 247]
100%	6.9 nM	–	–	–	CC(C)CN1CCC[C@@H]1C(=O)NCc1ccc(F)cc1 [Example 222]
93.5%	7.5 nM	–	–	–	O=C(NC1C2CC3CC(C2)CC1C3)[C@H]1NCC[C@@H]1c1ccc(Cl)cc1 (stereo partly shown) [Example 367]
94.9%	15 nM	–	–	–	O=C(NC1C2CC3CC(C2)CC1C3)[C@H]1NCC[C@@H]1CC1CCCCC1 (stereo partly shown) [Example 366]
100%	1 nM	–	–	–	CC(C)CN1[C@H]2CC[C@H](C2)[C@@H]1C(=O)NC12CC3CC(CC(C3)C1)C2 (relative stereo) [Example 210]
100%	6.6 nM	–	–	–	O=C(NC1C2CC3CC(C2)CC1C3)[C@H]1NCC[C@@H]1Cc1ccccc1 (stereo partly shown) [Example 369]
100%	13 nM	–	–	–	CC(C)CN1CSC[C@H]1C(=O)N(C)C1CCCCC1 [Example 195]
98.7%	3.4 nM	–	–	–	N#Cc1ccccc1CN1CCOC[C@@H]1C(=O)N[C@@H]1CCc2ccccc21 [Example 305]
100%	5.9 nM	–	–	–	O=C(NC12CC3CC(CC(C3)C1)C2)[C@H]1CCCC[C@H]1NCc1ccc(Cl)cc1 (racemic) [Example 201]
100%	1 nM	–	–	–	O=C(NC12CC3CC(CC(C3)C1)C2)[C@H]1[C@H]2CC[C@H](C2)N1Cc1ccc(Cl)cc1 (relative stereo) [Example 203]
83.5%	47 nM	–	–	–	COc1ccccc1CNC(=O)[C@H]1CCCN1Cc1ccc(C#N)cc1 [Example 251]
100%	5.5 nM	–	–	–	Cc1ccccc1O[C@@H]1CN[C@H](C(=O)NC2C3CC4CC(C3)CC2C4)C1 (stereo partly shown) [Example 320]
–	–	–	11%	–	CC(C)(C)OC(=O)N1CCCC(C(=O)Nc2ccc3ncccc3n2)C1 (stereo not shown) [Example 164]
100%	4 nM	–	–	–	CC(C)CN1CCOC[C@@H]1C(=O)N(C)C1CCCCC1 [Example 333]
100%	8.6 nM	–	–	–	COc1ccccc1CNC(=O)[C@H]1CCCN1CC(C)C [Example 255]

inhibition at 0.1 µM (0.1 μM compound)	Ki	Ki (human 11b-hsd-1)	inhibition at 0.1 µM (compound at 0.1 μM)	% inh @ 0.1 μM (compound at 0.1 μM, 0.1 µM)	Compound
–	–	1.1 nM	100%	–	CC1(C)CC(NC(=O)C2COCCN2CC2CCCC2)CC(C)(C)C1 (stereo not shown) [Example 190]
100%	1 nM	–	–	–	O=C(NC1C2CC3CC(C2)CC1C3)[C@@H]1C[C@H](Oc2ccc(Cl)c(F)c2)CN1 (stereo partly shown) [Example 365]
86.2%	–	–	–	–	O=C(NC1CCCCC1)[C@@H]1C[C@H](Oc2cc(F)ccc2F)CN1 [Example 371]
97.7%	5.71 nM	–	–	–	CC(C)CN1CCOC[C@@H]1C(=O)N[C@@H]1CCc2ccccc21 [Example 308]
100%	0.7 nM	–	–	–	O=C(NC1C2CC3CC(C2)CC1C3)[C@@H]1C[C@H](Oc2ccccc2F)CN1 (stereo partly shown) [Example 341]
100%	6.9 nM	–	–	–	CCCN1CCOC[C@@H]1C(=O)NCC1CCCCC1 [Example 335]
97.4%	–	–	–	–	O=C(NC1CCCCC1)[C@@H]1C[C@H](Oc2c(F)cc(F)cc2F)CN1 [Example 372]
96.7%	5.1 nM	–	–	–	CC(C)CN1CCC[C@@H]1C(=O)NCc1ccccc1F [Example 220]
100%	1 nM	–	–	–	O=C(NC12CC3CC(CC(C3)C1)C2)[C@@H]1[C@H]2CC[C@H](C2)N1Cc1ccc(Cl)cc1 (racemic) [Example 204]
71.7%	1 nM	–	–	–	CN(Cc1ccccc1)C(=O)[C@H]1COCCN1Cc1ccccc1 [Example 272]
80.7%	44 nM	–	–	–	Cc1ncccc1O[C@@H]1CN[C@H](C(=O)NC2C3CC4CC(C3)CC2C4)C1 (stereo partly shown) [Example 359]
92%	29.5 nM	–	–	–	O=C(N[C@H]1c2ccccc2C[C@H]1O)[C@H]1COCCN1CC1CCCC1 [Example 310]
100%	24 nM	–	–	–	N#Cc1ccc(CN2CCC[C@@H]2C(=O)NCc2ccccc2Cl)cc1 [Example 253]
95.3%	14 nM	–	–	–	CN(Cc1ccccc1Cl)C(=O)[C@H]1COCCN1CC1CCCC1 [Example 312]
91%	10.9 nM	–	–	–	CC(C)CN1CCOC[C@@H]1C(=O)N[C@@H]1CCCc2ccccc21 [Example 316]
–	–	32 nM	72.1%	–	CN(C(=O)C1COCCN1CC1CCCCC1)C1CCCCC1 (stereo not shown) [Example 180]
62.5%	45 nM	–	–	–	O=C(NCc1ccccc1)C1COCCN1CC1CCCCC1 (stereo not shown) [Example 322]
76%	49.2 nM	–	–	–	CC(C)CN1CCOC[C@@H]1C(=O)NCc1ccccc1 [Example 278]
